One may read the pIC50 as the IC50 on a negative log10 scale, so that one unit is a factor of ten. The low end stands for a large IC50, the high end for a small IC50. By pKd is commonly meant −log10 of the Kd, conventionally taken in molar units. High values mean a low Kd, low ones a high Kd.

This passage reports IC50 and Kd results from BindingDB's records for doi:10.1016/j.ab.2009.08.013 (Novartis Institute For Tropical Diseases, 2009).

Structures are written as SMILES. pIC50, pKd: −log10 of the molar value. Non-standard residues stand in square brackets, D forms with d. Residues, ends and D or L forms follow the SMILES beside them. *: point of attachment. Nle = CCCC[C@H](N)C(=O)O; Bz = O=C(c1ccccc1)*

In experiment [1] the target is T1, Genome polyprotein [1424-1463]/[1502-1685] (West Nile virus, UniProt P06935).
T1 construct: 1424-1463; 1502-1685
T1 sequence (P06935 whole entry) 1: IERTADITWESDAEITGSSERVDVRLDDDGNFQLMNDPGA
T1 sequence (P06935 whole entry) 2: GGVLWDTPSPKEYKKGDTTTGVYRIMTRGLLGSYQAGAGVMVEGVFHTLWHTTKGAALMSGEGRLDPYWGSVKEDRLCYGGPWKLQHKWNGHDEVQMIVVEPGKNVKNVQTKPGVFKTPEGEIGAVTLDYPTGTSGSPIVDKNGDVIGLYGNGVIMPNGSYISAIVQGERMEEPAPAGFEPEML
In words: Enzyme Inhibition Assay (IC50) and Fluorescence Quench Assay (KD). The settings on record: pH 7.5; 37 °C. The protocol:
(§1) Inhibitors were assayed in a 96-well plate format. […] The reaction was initiated by the addition of substrate Bz-nKRR-AMC. Reaction progress was monitored continuously by following the increase in fluorescence on a Tecan Safire2 plate reader. IC50 values of inhibitors were derived by fitting the calculated initial velocities to a nonlinear regression curve using GraphPad Prism software. Each point of the IC50 curve was measured in duplicate during a single experiment. Compounds were tested for binding (KD) using fluorescence quench assay. Two protein solutions were prepared (2-5 uM protein with and without 40 uM compound) and were mixed in a microplate to obtain 12 different compound concentrations ranging from 0 to 40 uM. Then each dilution comprising 90 ul was transferred to a UV-Star 96-well microplate. […] Binding curves were analyzed according to the two-state model describing the formation of a 1:1 complex. Kd values were obtained from curve-fit of binding isotherms.

The target of experiment [2] is T2, Genome polyprotein [1066-1250,R1182K]/[1394-1440,K1405R,D1408E] (dengue virus type 2, UniProt P14340+P27914, D1408E/K1405R/R1182K).
T2 construct: 1066-1250; 1394-1440
The description is as above. To be noted: pH 7.5; 37 °C. The protocol: as §1

Experiment [3] has as its target T3, Genome polyprotein [1394-1440]/[1476-1660] (dengue virus type 4, UniProt Q58HT7).
T3 construct: 1394-1440; 1476-1660
The experiment can be described thus: Enzyme Inhibition Assay. The protocol: (§2) Inhibitors were assayed in a 96-well plate format. […] The reaction was initiated by the addition of substrate Bz-nKRR-AMC. Reaction progress was monitored continuously by following the increase in fluorescence on a Tecan Safire2 plate reader. IC50 values of inhibitors were derived by fitting the calculated initial velocities to a nonlinear regression curve using GraphPad Prism software. Each point of the IC50 curve was measured in duplicate during a single experiment.

Experiment [4] has as its target T4, Genome polyprotein [1394-1440]/[1476-1660,T1585M] (dengue virus type 3, UniProt P27915+Q6YMS4, T1585M).
T4 construct: 1394-1440; 1476-1660
The experiment can be described thus: Enzyme Inhibition Assay. As to the method:
as §2

Experiment [5] addresses T5, Genome polyprotein [1393-1439,E1407V]/[1476-1660,R1508K,A1566M] (dengue virus type 1, UniProt P17763+P33478, A1566M/E1407V/R1508K).
T5 construct: 1393-1439; 1476-1660
The experiment can be described thus: Enzyme Inhibition Assay. To be noted: pH 7.5; 37 °C. As to the method: as §2

The target in experiment [6] is T2, Genome polyprotein [1066-1250,R1182K]/[1394-1440,K1405R,D1408E]. The experiment can be described thus: Enzyme Inhibition Assay. To be noted: pH 7.5; 37 °C. As to the method:
as §2

The target of experiment [7] is T1, Genome polyprotein [1424-1463]/[1502-1685]. The experiment can be described thus: Enzyme Inhibition Assay. To be noted: pH 7.5; 37 °C. As to the method: as §2

T5 sequence (P17763 1476-1660, looked up, stated change not applied): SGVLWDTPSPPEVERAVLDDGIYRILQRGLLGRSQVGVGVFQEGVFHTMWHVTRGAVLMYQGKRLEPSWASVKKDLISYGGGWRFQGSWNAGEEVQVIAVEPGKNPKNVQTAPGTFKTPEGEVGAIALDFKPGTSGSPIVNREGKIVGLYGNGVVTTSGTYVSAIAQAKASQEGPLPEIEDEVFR
T5 sequence (P33478 1393-1439, looked up, stated change not applied): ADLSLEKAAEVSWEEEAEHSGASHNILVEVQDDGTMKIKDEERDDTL
T2 sequence (P14340 1394-1440, looked up, stated change not applied): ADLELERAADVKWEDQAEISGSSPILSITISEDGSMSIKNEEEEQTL
T2 sequence (P27914 1066-1250, looked up, stated change not applied): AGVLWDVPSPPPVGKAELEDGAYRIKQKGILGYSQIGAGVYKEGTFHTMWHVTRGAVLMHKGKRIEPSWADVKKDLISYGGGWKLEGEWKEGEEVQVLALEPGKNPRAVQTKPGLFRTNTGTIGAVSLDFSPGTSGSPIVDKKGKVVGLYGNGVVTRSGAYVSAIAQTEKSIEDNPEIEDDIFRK
T4 sequence (P27915 1394-1440, stated change not applied): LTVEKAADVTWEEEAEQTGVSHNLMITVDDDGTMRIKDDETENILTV
T4 sequence (Q6YMS4 1476-1660, looked up, stated change not applied): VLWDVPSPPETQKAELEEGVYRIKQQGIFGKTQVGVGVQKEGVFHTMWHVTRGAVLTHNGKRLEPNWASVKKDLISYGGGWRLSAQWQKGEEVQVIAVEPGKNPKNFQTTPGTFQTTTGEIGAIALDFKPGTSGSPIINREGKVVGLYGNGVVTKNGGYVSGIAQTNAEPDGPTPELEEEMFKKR
T3 sequence (Q58HT7 1394-1440): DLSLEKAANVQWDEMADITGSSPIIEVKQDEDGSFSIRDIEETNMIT
T3 sequence (Q58HT7 1476-1660): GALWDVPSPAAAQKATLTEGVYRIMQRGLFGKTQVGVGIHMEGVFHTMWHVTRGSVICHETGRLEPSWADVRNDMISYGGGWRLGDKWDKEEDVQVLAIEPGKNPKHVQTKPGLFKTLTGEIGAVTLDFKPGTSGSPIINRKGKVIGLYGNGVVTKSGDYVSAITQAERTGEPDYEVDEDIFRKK

On to `c1ccc2c(Nc3ccc4c(c3)CCNC4)nnc(Nc3ccc(C4=NCCN4)cc3)c2c1` [phthalazine-based compound, 6], for which the pIC50 in experiment [1] is 5.21; in experiment [2], 4.26; in experiment [3], 4.37; in experiment [4], 4.07; in experiment [5], 3.77. Moreover, the pKd is 5.15 in experiment [1] and 4.27 in experiment [2].

`c1ccc2c(Nc3ccc4c(c3)CNCC4)nnc(Nc3ccc(C4=NCCN4)cc3)c2c1` [phthalazine-based compound, 4]: the negative-log Kd (pKd) in experiment [1] was 5.34; in experiment [2], 4.64. Further, the pIC50 was 4.56 in experiment [2], 4.19 in experiment [3], 4.00 in experiment [4] and 3.63 in experiment [5].

In the case of `COC(=O)c1ccc(-c2ccc(Nc3nnc(Nc4ccc(C5=NCCN5)cc4)c4ccccc34)cc2)cc1` [phthalazine-based compound, 7], the pIC50 in experiment [1] is 5.66; in experiment [2] it was 5.80; in experiment [3] it was 5.89; in experiment [4], 6.00; in experiment [5] it was 5.57.

For `c1ccc2c(Nc3ccc(C4=NC5CCCCC5N4)cc3)nnc(Nc3ccc(C4=NC5CCCCC5N4)cc3)c2c1` (configuration not stated) [phthalazine-based compound, 3], the pIC50 is 4.66 in experiment [1]; 5.96 in experiment [2]; 4.87 in experiment [3]; 5.07 in experiment [4]; 4.97 in experiment [5]. Moreover, the negative logarithm of the Kd (pKd) in experiment [1] is 4.05; in experiment [2], 5.11.

`NCc1ccc(Nc2nnc(Nc3ccc(C4=NCCN4)cc3)c3ccccc23)cc1` [phthalazine-based compound, 5]: the pKd in experiment [1] is 4.00; in experiment [2], 4.73. Moreover, the pIC50 in experiment [2] is 5.24; in experiment [3] it was 5.09; in experiment [4], 5.06; in experiment [5], 4.91.

Turning to `c1ccc(-c2ccc(Nc3nnc(Nc4ccc(C5=NCCN5)cc4)c4ccccc34)cc2)cc1` [phthalazine-based compound, 2], the negative-log IC50 (pIC50) in experiment [1] is 5.44; in experiment [2], 5.64; in experiment [3], 5.70; in experiment [4], 5.80; in experiment [5], 5.70.

Regarding `Nc1ccc2c(Nc3ccc(C4=NCCN4)cc3)nnc(Nc3ccc(C4=NCCN4)cc3)c2c1` [phthalazine-based compound, 9], the pIC50 in experiment [2], in experiment [3], in experiment [4] and in experiment [5] was less than 4.00 throughout. Further, in experiment [2], the pKd is 4.00.

On to `CC1CNC(c2ccc(Nc3nnc(Nc4ccc(C5=NC(C)CN5)cc4)c4ccccc34)cc2)=N1` (configuration not stated) [phthalazine-based compound, 1], for which the pKd is 4.68 in experiment [1] and 5.14 in experiment [2]. Further, the pIC50 in experiment [2] is 5.22; in experiment [3], 4.48; in experiment [4] it was 4.76; in experiment [5], 4.44.

As for `CCCC[C@H](NC(=O)c1ccccc1)C(=O)N[C@@H](CCCCN)C(=O)N[C@@H](CCCNC(=N)N)C(=O)N[C@H](C=O)CCCNC(=N)N` [Bz-Nle-Lys-Arg-Arg-H] (Bz-[Nle]KRR-aldehyde), the pIC50 in experiment [3] is 5.85; in experiment [4], 5.10; in experiment [5] it was 4.93; in experiment [6] it was 5.05.

As for `c1ccc2c(Nc3ccc(C4=NCCN4)cc3)nnc(Nc3ccc(C4=NCCN4)cc3)c2c1` [phthalazine-based compound, 8], the pIC50 in experiment [2] was 4.99; in experiment [3] it was 4.70; in experiment [7], 4.80; in experiment [4], 4.55; in experiment [5] it was 4.67. The molecule also had a negative-log Kd (pKd) in experiment [2] of 4.79.
